Results from patent publication US20150266864A1, “HETEROAROMATIC COMPOUNDS, METHOD FOR PREPARING THE COMPOUNDS, PHARMACEUTICAL COMPOSITIONS, USES AND METHOD FOR TREATING ACUTE AND CHRONIC PAIN” (CRISTÁLIA PRODUTOS QUÍMICOS FARMACÊUTICOS LTDA, priority 2012, published 2015).

Experiments:
Swiss mice [1] = experiment: Hot plate model, assay for acute pain; format: in vivo; conditions: ip, 32.25 μmol/kg
Swiss mice [2] = experiment: Hot plate model, assay for acute pain; format: in vivo; conditions: ip, 32.25 μmol/kg, plate 52° C., compared to morphine sulfate at the same dose
Text: The antinociceptive activity (AA) of the present invention selected compounds (C3, C9, C11, C12, C13, C15 and C17) was investigated in hot plate model [Hot Plate Model LE7406, Scientific Inc.] described by Kuraishi et al. [Kuraishi, Y., Harada, Y., Aratani, S., Satoh, M., Takagi, H. Brain Research 1983.273, 245-2523]. This method is valid to evaluate the analgesic activity of substances acting on the central nervous system. Swiss mice weighing 20-25 g were placed on a metal plate heated up to 52° C. The animals were withdrawn from the hot plate at the time they lead their forepaws toward the mouth to lick, being this an indicative of pain second Le Bars et al. [Le Bars, D., Gozariu, M., Cadden, S. W. Animal models of nociception. Pharmacol. Rev. 2001, 53 (4), 597-652]. In this way, it was analyzed how long the animal, treated or not (control) with the analgesic substance, remained on the plate at 52° C.; the longest residence time of an animal on the plate was 35 seconds. This time limit (or cut off) (35 s) was determined by the average of three measurements of latency control values, obtained for each animal multiplied by three, to prevent any kind of tissue injury on the footpad of animals's paw due to long permanence on the heated surface. The protocol consisted in the intraperitoneal (ip) injection of the selected compounds of the present invention at a dose of 32.25 μmol/kg. The antinociceptive activity was evaluated at intervals of 10 minutes until effect completely disappear and, compared to morphine sulfate ([…]) at the same dose of 32.25 μmoles/kg (12.2 mg/kg). The investigated parameter is the latency of reflex to paw withdrawal in response to thermal stimulus. The results were expressed as percentage of AA, which was calculated according to Equation 1 for each experiment.

Swiss-type male mice = experiment: RotaRod performance test, motor coordination; conditions: for Mice residence time on the rotational cylinder: 9 rpm, cut off 180 s, mean ± SEM
Method: The assessment of motor coordination in mice, by the rotarod performance test, was carried out to detect any possible sedative or muscle relaxant effect caused by the compounds of the present invention, previously tested in acute and neuropathic pain models. This test was carried out according to the method of described by Dunham & Miya and animal motor coordination was evaluated using RotaRod apparatus [Dunham M. S. & Miya. R. T. (1957). J. Amer. Pharmac. Assoc. Sci. Edit. 1957, 46, 208-209].
The RotaRod apparatus (Model 412 EFF, Insight Equipements, Brazil) is a device that measures motor coordination and thus evaluates balance alterations in mice. The apparatus consists of an acrylic box splited into four compartments with a rotational cylinder among them. The cylinder rotates at constant speed driven by a motor and regulated to the constant speed mode of 5-37 revolutions per minute (rpm). In this study the speed was set up to 9 rpm.
To remain on the rotational cylinder, the animal needs to move around, so that the motor coordination can be quantified. The four compartments have drop detection system, through the impact, a microprocessor circuit, for timing the permanence of the animal at the compartment, and for counting the number of falls.
The day before the test, Swiss-type male mice (19-25 g) were placed on the rotational cylinder, set up to the constant speed mode of 9 rpm for adaptation and learning. A group of 10 mice were used for each tested compound, and the total period spent on the rotational cylinder (in seconds) was recorded for a period of 180 seconds (cut off time) and it was accept a maximum of three falls for each animal. Motor coordination was assessed at times 0 (before treatment), 15, 30, 60 and 120 minutes after compounds administration at a dose of 32.25 μmol/kg.
All compounds were administered intraperitoneally (ip).
The Student's t-test was also used to compare means between two experimental groups. Differences were considered significant when p<0.05.

rats subjected to SNL [3] = experiment: Spinal nerve ligation (SNL) L5 model, mechanical allodynia (digital Von Frey); format: in vivo, rat
Method: (§1) This experimental model was proposed by Kim and Chung [Kim, S. H.; Chung, J. M. Pain 1992, 50: 355-363] and consists of ligation of spinal nerves. Male Wistar rats, 180-220 g, were anesthetized with a mixture of ketamine and xylazine (60 mg/kg and 5 mg/kg, respectively) intraperitoneally. After the dorsal region asepsy, an incision was made between L5 and S1. The L6 transverse process was removed for locating the nerves L4 and L5, which were carefully isolated, and tight ligation of the L5 nerve with 6.0 silk thread was made, interrupting flow of the axon of the nerve. After this procedure, para-spinal muscles and skin were sutured, and then a topical antiseptic was applied. False operated animals (sham) were subjected to the same procedure, however the spinal nerve was not ligated.
To evaluate the development of mechanical allodynia, digital analgesimeter (Model EFF301; Insight Equipments), digitalized version coupled to a pointed filament (Von Frey model variant) was used. This test aims to assess changes in tactile sensitivity in response to a mechanical stimulus as a result of a neural damage. The device consisted of a hand-held force transducer fitted with a sensor tip, through which a pressure with increasing strength is applied against the footpad of the animals hindpaw to assess the threshold of paw withdrawal, that is, the digital analgesimeter records the maximal strength, in grams (g), in which the animal withstands until the paw withdrawal reflex.
Animals were placed in individual acrylic boxes and let to acclimate for 30 min before the beginning of the test. After this period, the thresholds of hindpaw withdrawal were determinded. For each hindpaw, five records of the withdrawal thresholds were made, and the average for each hindpaw was defined as the paw withdrawal threshold control.
(§2) The treatment started on the 7th day after surgery. Compounds were diluted in water or DMSO and administered through intraperitoneal route on daily basis, during 7 days, at a dose of […]. The effectiveness of tested compounds was assessed on days 1, 3, and 7 days after treatment, always before the next administration of the compound. Latencies were also assessed on days 1, 3, and 7 after treatment interruption.
(§3) Differences were considered significant when p<0.05.

rats subjected to SNL [4] = experiment: Spinal nerve ligation (SNL) L5 model, thermal hyperalgesia; format: in vivo, rat
Method: as §1
This method aims to evaluate the animal behavior in response to hyperalgesic phenomenon resulting from the injury induced by the ligament of spinal nerve (L5). In this regard, paw withdrawal in response to thermal stimulus was used, and the thermal stimulus was induced by the radiant heat of an incandescent lamp bulb. The paw withdrawal test was performed as described for the assessment of thermal hyperalgesia in the sciatic nerve chronic constrictive injury model.
as §3, §2

[5] = T 15 min after ip administration, 32.25 μmol/kg
[6] = T 30 min after ip administration, 32.25 μmol/kg (diazepam 2 mg/kg)
[7] = T 60 min after ip administration, 32.25 μmol/kg (diazepam 2 mg/kg)
[8] = T 120 min after ip administration, 32.25 μmol/kg (diazepam 2 mg/kg)
[9] = ip during 7 days, 32.25 μmol/kg

| Structure (SMILES) | melting point | side effects compared to morphine (Swiss mice [1]) | antinociceptive activity (AA), hot plate (Swiss mice [2]) | Mice residence time on the rotational cylinder (Swiss-type male mice; [5]) | Mice residence time on the rotational cylinder (Swiss-type male mice; [6]) | Mice residence time on the rotational cylinder (Swiss-type male mice; [7]) | Mice residence time on the rotational cylinder (Swiss-type male mice; [8]) | paw withdrawal threshold, mechanical allodynia (rats subjected to SNL [3]; after 3 days of treatment, 32.25 μmol/kg ip, p<0.05) | reversal of allodynia signs associated with neuropathic pain (rats subjected to SNL [3]; [9]) | reversal of hyperalgesia signs associated with neuropathic pain (rats subjected to SNL [4]; [9]) | increase on the latency vs control post-surgery (rats subjected to SNL [4]; since the 3rd day of treatment, 32.25 μmol/kg ip) | animal residence time on the rotational cylinder compared to controls (Swiss-type male mice; 15 minutes after administration, 32.25 μmol/kg) |
| --- | --- | --- | --- | --- | --- | --- | --- | --- | --- | --- | --- | --- |
| OC1(c2ccc(Cl)cc2)CCN(CCc2c[nH]nc2-c2ccc(F)cc2)CC1 [C13, 4-(4-chlorophenyl)-1-{2-[3-(4-fluorophenyl)-1H-pyrazol-4-yl]ethyl}piperidin-4-ol] | 142 to 144 °C | no side effects of conventional morphine | exhibit antinociceptive activity of intensity and kinetics similar to morphine sulfate | 100.9 s | 95.5 s | 143.7 s | 152.4 s |  |  |  |  |  |
| CCN1CCN(CCc2c[nH]nc2-c2ccc(F)cc2)CC1.Cl.Cl.Cl.O.O.O [C12, 1-ethyl-4-{2-[3-(4-fluorophenyl)-1H-pyrazol-4-yl]ethyl}piperazine trihydrochloride trihydrate] |  | no side effects of conventional morphine | exhibit antinociceptive activity of intensity and kinetics similar to morphine sulfate | 179.6 s | 178.6 s | 178.2 s | 179.8 s | significant (p<0.05) paw withdrawal threshold | effective in reverse the hyperalgesia and allodynia signs | effective in reverse the hyperalgesia and allodynia signs | statistically significant increase | equal to the time observed for the negative control, and significantly higher than the time observed for the control amitriptyline hydrochloride |
